≈ marks a conversion by molar mass, not a printed value.
Biological target: T1, Mushroom tyrosinase
T1 construct: gene PPO3; commercial native mushroom tyrosinase (Sigma), isoenzyme mixture
Experiment: absorbance at […] nm, […] min
Assay type: biochemical
Conditions: L-tyrosine substrate (1 mL of 100 mg/L); sodium phosphate buffer; DMSO stock; alpha or beta anomer not stated

- IC50: 56 ± 12 µg/mL (≈ 206 µM)
Compound: OC[C@H]1O[C@@H](Oc2ccc(O)cc2)[C@H](O)[C@@H](O)[C@@H]1O [arbutin]
